Experimental data as given in patent publication US7981633B2, “Method for measuring tyrosine kinase phosphorylation” (Merck Patent GmbH, priority 2005, dated 2011).

How the values were obtained:
[1] = molecular target: FAK (Homo sapiens, UniProt Q05397); experiment: Luminex bead sandwich assay of FAK autophosphorylation in HT29 cell lysate after FCS activation; assay type: cell-based; conditions: HT29 cells, 30 μM inhibitor 45 min
[2] = molecular target: IGFR1 (Homo sapiens, UniProt P08069); experiment: Luminex bead sandwich assay of IGFR1 autophosphorylation in HT29 cell lysate after IGF activation; assay type: cell-based; conditions: HT29 cells, 30 μM inhibitor 45 min, IGF 100 ng/ml
IGFR1, sequence (P08069 31-1367): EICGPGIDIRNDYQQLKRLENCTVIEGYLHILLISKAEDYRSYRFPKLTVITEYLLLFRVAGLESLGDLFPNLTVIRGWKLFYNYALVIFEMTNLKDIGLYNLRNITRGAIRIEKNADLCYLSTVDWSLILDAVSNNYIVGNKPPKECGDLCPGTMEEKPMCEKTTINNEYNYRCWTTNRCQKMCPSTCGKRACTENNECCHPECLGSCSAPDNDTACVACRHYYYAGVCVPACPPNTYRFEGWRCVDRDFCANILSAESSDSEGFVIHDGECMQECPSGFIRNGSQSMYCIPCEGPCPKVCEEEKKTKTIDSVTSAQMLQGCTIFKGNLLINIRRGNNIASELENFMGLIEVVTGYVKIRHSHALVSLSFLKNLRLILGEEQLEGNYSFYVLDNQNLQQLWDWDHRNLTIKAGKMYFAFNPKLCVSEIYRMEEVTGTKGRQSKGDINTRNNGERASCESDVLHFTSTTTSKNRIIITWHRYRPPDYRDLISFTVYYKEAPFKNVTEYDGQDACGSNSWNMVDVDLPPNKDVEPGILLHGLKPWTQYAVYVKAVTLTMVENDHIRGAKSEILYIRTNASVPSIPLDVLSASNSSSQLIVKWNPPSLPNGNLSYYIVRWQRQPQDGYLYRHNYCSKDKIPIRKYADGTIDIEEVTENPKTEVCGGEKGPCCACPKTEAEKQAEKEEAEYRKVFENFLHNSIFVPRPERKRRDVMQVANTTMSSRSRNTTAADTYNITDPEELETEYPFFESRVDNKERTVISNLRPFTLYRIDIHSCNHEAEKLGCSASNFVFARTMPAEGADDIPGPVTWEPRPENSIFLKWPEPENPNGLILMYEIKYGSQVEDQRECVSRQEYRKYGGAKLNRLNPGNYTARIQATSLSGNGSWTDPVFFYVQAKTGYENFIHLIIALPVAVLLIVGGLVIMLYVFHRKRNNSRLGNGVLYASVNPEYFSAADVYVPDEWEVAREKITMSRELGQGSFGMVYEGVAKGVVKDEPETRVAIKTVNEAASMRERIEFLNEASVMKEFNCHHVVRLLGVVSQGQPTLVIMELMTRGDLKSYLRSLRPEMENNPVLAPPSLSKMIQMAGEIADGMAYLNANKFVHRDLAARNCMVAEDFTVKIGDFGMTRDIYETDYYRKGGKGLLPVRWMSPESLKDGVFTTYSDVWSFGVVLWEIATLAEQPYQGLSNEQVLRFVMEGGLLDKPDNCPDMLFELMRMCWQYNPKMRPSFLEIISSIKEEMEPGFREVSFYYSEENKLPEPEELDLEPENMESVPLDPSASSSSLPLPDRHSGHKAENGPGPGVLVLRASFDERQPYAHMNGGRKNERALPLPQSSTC

[3] = molecular target: Met (Homo sapiens, UniProt P08581); experiment: Luminex bead sandwich assay of Met autophosphorylation in HT29 cell lysate after HGF activation; conditions: HT29 cells, 30 μM inhibitor 45 min, HGF 100 ng/ml
Met, sequence (P08581 25-1390): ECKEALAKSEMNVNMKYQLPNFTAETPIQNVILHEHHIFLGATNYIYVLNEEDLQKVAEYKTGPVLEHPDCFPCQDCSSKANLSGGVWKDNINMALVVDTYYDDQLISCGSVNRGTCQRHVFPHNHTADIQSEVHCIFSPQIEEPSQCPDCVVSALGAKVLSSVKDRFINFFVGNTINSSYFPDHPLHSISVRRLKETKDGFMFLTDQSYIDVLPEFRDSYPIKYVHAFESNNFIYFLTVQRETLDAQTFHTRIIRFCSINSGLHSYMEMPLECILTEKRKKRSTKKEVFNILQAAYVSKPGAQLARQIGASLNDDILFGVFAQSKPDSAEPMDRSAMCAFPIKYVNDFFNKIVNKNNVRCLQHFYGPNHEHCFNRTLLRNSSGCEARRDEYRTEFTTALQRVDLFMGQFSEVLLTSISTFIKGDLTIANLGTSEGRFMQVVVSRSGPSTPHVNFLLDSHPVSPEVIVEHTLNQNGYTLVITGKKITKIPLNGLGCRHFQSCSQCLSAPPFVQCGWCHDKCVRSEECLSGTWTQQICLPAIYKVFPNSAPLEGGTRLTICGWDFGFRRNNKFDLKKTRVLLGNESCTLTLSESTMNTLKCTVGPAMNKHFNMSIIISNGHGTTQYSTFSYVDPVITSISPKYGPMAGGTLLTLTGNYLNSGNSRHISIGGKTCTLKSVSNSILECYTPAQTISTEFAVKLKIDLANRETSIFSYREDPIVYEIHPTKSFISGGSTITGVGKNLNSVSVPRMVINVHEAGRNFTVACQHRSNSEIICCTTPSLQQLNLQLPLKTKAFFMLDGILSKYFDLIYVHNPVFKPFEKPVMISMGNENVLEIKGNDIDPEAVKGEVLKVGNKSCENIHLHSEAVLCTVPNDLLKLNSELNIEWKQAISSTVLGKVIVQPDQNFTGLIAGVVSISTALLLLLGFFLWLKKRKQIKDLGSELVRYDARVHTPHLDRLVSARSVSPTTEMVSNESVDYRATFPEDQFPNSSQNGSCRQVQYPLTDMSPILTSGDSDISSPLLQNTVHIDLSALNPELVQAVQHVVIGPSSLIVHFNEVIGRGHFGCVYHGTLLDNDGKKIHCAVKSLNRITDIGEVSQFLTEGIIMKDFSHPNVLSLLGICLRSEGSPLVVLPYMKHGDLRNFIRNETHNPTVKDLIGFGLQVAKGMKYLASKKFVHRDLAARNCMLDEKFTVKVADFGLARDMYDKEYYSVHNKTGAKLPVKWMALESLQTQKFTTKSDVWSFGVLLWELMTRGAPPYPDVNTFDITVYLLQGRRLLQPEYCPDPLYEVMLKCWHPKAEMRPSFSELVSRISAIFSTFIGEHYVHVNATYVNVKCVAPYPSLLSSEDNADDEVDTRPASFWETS
Protocol: Human tumor cell line HT29 (colorectal carcinoma) were obtained from ATCC and maintained in Dulbecco's modified Eagle's medium containing 10% fetal calf serum at 37° C. in 5% CO2. 16-20 h before inhibitor treatment HT29 cells were starved in medium without fetal calf serum. Cells were incubated for 45 min with 30 μM kinase inhibitor (EGFR-lnhibitor, FAK-inhibitor, IGFR1-inhibitor or Met-Inhibitor) or in medium without kinase inhibitor as a positive control.
Activation of the kinases was initiated for 10-15 min with 100 ng/ml of the corresponding ligands EGF, IGF, HGF for Met kinase or fetal calf serum (FCS) for FAK kinase. […]
2.5×10^6 Luminex microspheres were coupled with 50 μg/ml antibody as described by the manufacturer (capture antibodies for EGFR, IGFR, MET and Fak were obtained from R&D-Systems and Upstate). […] After three wash steps with assay buffer, phosphorylated tyrosin-residues were detected with a biotinylated anti-phospho-tyrosin antibody (1 h agitation at room temperature; Santa Cruz Biotechnology) and phycoerythrin-conjugated Streptavidin (45 min agitation at room temperature; Dianova). Microspheres were analysed in a Luminex™ 100 machine as described by the manufacturer.

FAK, sequence (Q05397 whole entry): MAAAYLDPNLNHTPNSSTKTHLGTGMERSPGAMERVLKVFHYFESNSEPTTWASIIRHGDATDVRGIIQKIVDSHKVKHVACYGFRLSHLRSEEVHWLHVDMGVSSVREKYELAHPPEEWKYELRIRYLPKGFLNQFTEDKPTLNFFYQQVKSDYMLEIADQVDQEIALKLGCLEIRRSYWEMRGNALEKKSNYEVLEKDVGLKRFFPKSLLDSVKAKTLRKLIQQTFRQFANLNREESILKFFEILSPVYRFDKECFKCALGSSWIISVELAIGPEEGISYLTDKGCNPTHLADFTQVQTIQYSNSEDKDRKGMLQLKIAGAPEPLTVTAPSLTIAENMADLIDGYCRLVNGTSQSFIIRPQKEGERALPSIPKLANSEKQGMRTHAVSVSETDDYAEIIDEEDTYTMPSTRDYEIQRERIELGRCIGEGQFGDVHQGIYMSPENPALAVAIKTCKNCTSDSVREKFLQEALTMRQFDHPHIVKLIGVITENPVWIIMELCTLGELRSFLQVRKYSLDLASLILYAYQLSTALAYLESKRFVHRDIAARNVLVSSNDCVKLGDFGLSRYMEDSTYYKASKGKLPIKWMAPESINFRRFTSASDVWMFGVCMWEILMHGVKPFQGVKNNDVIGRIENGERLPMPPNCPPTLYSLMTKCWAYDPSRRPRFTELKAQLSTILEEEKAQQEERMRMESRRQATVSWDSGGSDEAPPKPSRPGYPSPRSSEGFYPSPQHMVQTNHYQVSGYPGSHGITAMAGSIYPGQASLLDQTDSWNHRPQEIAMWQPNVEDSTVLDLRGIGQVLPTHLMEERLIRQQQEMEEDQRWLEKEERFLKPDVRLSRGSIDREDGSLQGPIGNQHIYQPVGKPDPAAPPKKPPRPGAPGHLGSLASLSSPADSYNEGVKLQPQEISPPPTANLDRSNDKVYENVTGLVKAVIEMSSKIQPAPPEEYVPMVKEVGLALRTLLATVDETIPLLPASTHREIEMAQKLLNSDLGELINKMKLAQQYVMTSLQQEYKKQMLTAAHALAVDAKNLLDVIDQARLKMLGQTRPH

FAK-phosphorylation, mean fluorescence intensity (MFI) ([1]; multiple capture antibodies (EGFR, IGFR, FAK, Met) in one cavity, control without inhibitor MFI=1143)	FAK-phosphorylation, mean fluorescence intensity (MFI) ([1]; single capture antibody (FAK) in one cavity, control without inhibitor MFI=957)	IGFR1-phosphorylation, mean fluorescence intensity (MFI) ([2]; multiple capture antibodies (EGFR, IGFR, FAK, Met) in one cavity, control without inhibitor MFI=673)	IGFR1-phosphorylation, mean fluorescence intensity (MFI) ([2]; single capture antibody (IGFR1) in one cavity, control without inhibitor MFI=529)	Met-phosphorylation, mean fluorescence intensity (MFI) ([3]; multiple capture antibodies (EGFR, IGFR, FAK, Met) in one cavity, control without inhibitor MFI=817)	Met-phosphorylation, mean fluorescence intensity (MFI) ([3]; single capture antibody (Met) in one cavity, control without inhibitor MFI=675)	Compound
39	37	3	3	–	–	COc1cc(Nc2nccc(Nc3cnc4ccccc4c3)n2)cc(OC)c1OC [FAK-Kinase inhibitor]
–	–	–	–	9	9	Cc1[nH]c(/C=C2\C(=O)Nc3ccc(S(=O)(=O)Cc4c(Cl)cccc4Cl)cc32)c(C)c1C(=O)N1CCC[C@@H]1CN1CCCC1 [Met-Kinase inhibitor]
